US20090318412A1, “Tricyclic heterocyclic compound and use thereof” (priority 2006, published 2009)
Where a name gives a salt, the structure may show the parent alone.

Each compound was assayed against serotonin 5-HT2C receptor (Homo sapiens, UniProt P28335, I156V/I160V/N158S) (assay: cell-based). Conditions: CHO, read-out: ratio to maximum response by 5-HT.
Chain of serotonin 5-HT2C receptor (P28335 33-458 I156V/N158S/I160V limits assumed): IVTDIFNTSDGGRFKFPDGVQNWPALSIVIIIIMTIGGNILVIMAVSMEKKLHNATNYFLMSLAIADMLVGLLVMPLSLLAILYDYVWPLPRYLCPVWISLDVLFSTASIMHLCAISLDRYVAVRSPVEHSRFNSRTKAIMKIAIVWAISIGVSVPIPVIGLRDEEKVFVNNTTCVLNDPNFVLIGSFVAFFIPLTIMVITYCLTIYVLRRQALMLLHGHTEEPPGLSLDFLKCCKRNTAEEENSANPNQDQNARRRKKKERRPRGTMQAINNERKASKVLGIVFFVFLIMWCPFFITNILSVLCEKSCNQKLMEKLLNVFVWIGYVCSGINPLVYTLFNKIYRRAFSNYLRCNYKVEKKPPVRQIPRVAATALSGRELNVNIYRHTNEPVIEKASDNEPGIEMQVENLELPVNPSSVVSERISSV
`O=C1c2cc(Cl)ccc2OCC2CNCCN12` (stereo not drawn) [Example 6, 8-chloro-1,2,3,4,12,12a-hexahydro-6H-pyrazino[2,1-c][1,4]benzoxazepin-6-one hydrochloride] was tested, and the Emax was 99.4%.
`O=C1c2c(cccc2C(F)(F)F)OCC2CNCCN12` (stereo not drawn) [Example 42, 7-(trifluoromethyl)-1,2,3,4,12,12a-hexahydro-6H-pyrazino[2,1-c][1,4]benzoxazepin-6-one hydrochloride] was tested, and the Emax was 88.4%.
With `O=C1c2c(Br)cccc2OCC2CNCCN12` (stereo not drawn) [Example 41, 7-bromo-1,2,3,4,12,12a-hexahydro-6H-pyrazino[2,1-c][1,4]benzoxazepin-6-one hydrochloride] the Emax was 96%.
`FC(F)(F)c1ccc2c(c1)CN1CCNCC1CO2` (stereo not drawn) [Example 9, 8-(trifluoromethyl)-1,2,3,4,12,12a-hexahydro-6H-pyrazino[2,1-c][1,4]benzoxazepine dihydrochloride] showed an Emax of 91.5%.
`COc1ccc2c(c1)C(=O)N1CCNCC1CO2` (stereo not drawn) [Example 31, 8-methoxy-1,2,3,4,12,12a-hexahydro-6H-pyrazino[2,1-c][1,4]benzoxazepin-6-one hydrochloride] was tested, and the Emax was 93.8%.
Compound `O=C1c2ccc(Cl)cc2OCC2CNCCN12` (stereo not drawn) [Example 5, 9-chloro-1,2,3,4,12,12a-hexahydro-6H-pyrazino[2,1-c][1,4]benzoxazepin-6-one hydrochloride] has an Emax of 101%.
`Cc1ccc2c(c1)C(=O)N1CCNCC1CO2` (stereo not drawn) [Example 13, 8-methyl-1,2,3,4,12,12a-hexahydro-6H-pyrazino[2,1-c][1,4]benzoxazepin-6-one hydrochloride] was tested, and the Emax was 96.9%.
`Cc1cccc2c1OCC1CNCCN1C2=O` (stereo not drawn) [Example 37, 10-methyl-1,2,3,4,12,12a-hexahydro-6H-pyrazino[2,1-c][1,4]benzoxazepin-6-one hydrochloride] was tested, and the Emax was 98.3%.
With `O=C1c2c(Cl)cccc2OCC2CNCCN12` (stereo not drawn) [Example 4, 7-chloro-1,2,3,4,12,12a-hexahydro-6H-pyrazino[2,1-c][1,4]benzoxazepin-6-one hydrochloride] the Emax was 94.6%.
`c1ccc2c(c1)CN1CCNCC1CO2` (stereo not drawn) [Example 2, 1,2,3,4,12,12a-hexahydro-6H-pyrazino[2,1-c][1,4]benzoxazepine dihydrochloride] was tested, and the Emax was 116%.
In the case of `O=C1c2cccc(Cl)c2OCC2CNCCN12` (stereo not drawn) [Example 3, 10-chloro-1,2,3,4,12,12a-hexahydro-6H-pyrazino[2,1-c][1,4]benzoxazepin-6-one hydrochloride], the Emax is reported as 98.2%.
In the case of `O=C1c2cc(Br)ccc2OCC2CNCCN12` (stereo not drawn) [Example 10, 8-bromo-1,2,3,4,12,12a-hexahydro-6H-pyrazino[2,1-c][1,4]benzoxazepin-6-one hydrochloride], the Emax is reported as 107%.
`O=C1c2ccccc2OCC2CNCCN12` (stereo not drawn) [Example 1, 1,2,3,4,12,12a-hexahydro-6H-pyrazino[2,1-c][1,4]benzoxazepin-6-one hydrochloride] gave an Emax of 114%.
`O=C1c2cc(C(F)(F)F)ccc2OCC2CNCCN12` (stereo not drawn) [Example 8, 8-(trifluoromethyl)-1,2,3,4,12,12a-hexahydro-6H-pyrazino[2,1-c][1,4]benzoxazepin-6-one hydrochloride] gave an Emax of 96.5%.
With `Clc1ccc2c(c1)CN1CCNCC1CO2` (stereo not drawn) [Example 7, 8-chloro-1,2,3,4,12,12a-hexahydro-6H-pyrazino[2,1-c][1,4]benzoxazepine dihydrochloride] the Emax was 107%.
